Values quoted from earlier work in patent publication US8362077B2, “Chemical compositions for skin care emulsions and heavy duty hand cleansers” (Pibed Limited, priority 2008, dated 2013).
Where two headings read alike, the source gives them in different places.

Experiments:
[1] = test system: Staphylococcus aureus; conditions: low concentrations (0.5 to 2 mM)
[2] = test system: Lactobacillus fermentum; conditions: flow cytometry
[3] = test system: Microsporum gypseum; conditions: M. gypseum
[4] = test system: Microsporum gypseum; conditions: 10% in Vaseline petroleum jelly, topical, daily for 3 weeks
[5] = test system: Escherichia coli

Compound | Susceptibility to ciprofloxacin, clindamycin, erythromycin, gentamicin, tetracycline and vancomycin [1] | Intracellular accumulation of ethidium bromide by live cells [2] | MIC ([3]; positive control) [µg/mL] | MIC [3] | Histopathologic examination of skin tissues [4] | Skin lesion scoring [4] | Sensitization to polymyxin B [5] | Hair culture test [4]
CC(C)=CCC/C(C)=C/CC1CCCC1=O (centres unmarked) [apritone] | enhanced the susceptibility | promoted the intracellular accumulation |  |  |  |  |  | 
CC(C)=CCC[C@](C)(O)C1CC=C(C)CC1 (some centres unmarked) [bisabolol] | enhanced the susceptibility | promoted the intracellular accumulation |  |  |  |  |  | 
Clc1ccc(COC(Cn2ccnc2)c2ccc(Cl)cc2Cl)cc1 (centres unmarked) [econazole] |  |  | 4 to 16 |  |  |  |  | 
C=CCc1ccc(O)c(OC)c1 [eugenol] |  |  |  | 0.01-0.03% | lower degree of hyperkeratosis and inflammatory cell infiltration than the positive control | clinically effective at improving the lesion during the first week of application |  | 
CC(C)=CCCC(C)=CCCC(C)=CCO [farnesol] |  | promoted the intracellular accumulation |  |  |  |  | sensitized Escherichia coli to polymyxin B | 
C=CC(C)(O)CCC=C(C)CCC=C(C)C (centres unmarked) [nerolidol, 3,7,11-trimethyl-1,6,10-dodecatrien-3-ol] | enhanced the susceptibility | promoted the intracellular accumulation |  | 0.5-2% | lower degree of hyperkeratosis and inflammatory cell infiltration than the positive control | clinically effective at improving the lesion during the first week of application | sensitized Escherichia coli to polymyxin B | improved the skin lesions
